Data from patent US9273040B2 (Merck Sharp & Dohme Corp., priority 2011, dated 2016).

Legend:
[1] = target: T1, human Nav1.7 channels stably expressed in HEK 293 cells (Homo sapiens, UniProt Q15858); test: PatchXpress 7000 automated patch-clamp, sodium current; format: cell-based; conditions: 22° C., read-out: potency for the Nav 1.7 sodium ion channel (as measured by PatchXpress)
T1 construct: expressed in transfected cells
In short: (§1)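 IC50 values came from Hill-equation fits of rundown-corrected inhibition. PatchXpress recordings at 22° C held cells 20 mV negative to V0.5 inact and applied 10 Hz trains of 30 ms steps to −20 mV (Nav1.7) or an 8000 ms prepulse 7 mV positive to V0.5 inact. […]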

[2] = target: T2, human Nav1.5 channels stably expressed in HEK 293 cells (Homo sapiens, UniProt Q14524); test: as above; format: cell-based; conditions: selectivity over Nav1.5
T2 construct: expressed in transfected cells
T2 sequence (Q14524 whole entry): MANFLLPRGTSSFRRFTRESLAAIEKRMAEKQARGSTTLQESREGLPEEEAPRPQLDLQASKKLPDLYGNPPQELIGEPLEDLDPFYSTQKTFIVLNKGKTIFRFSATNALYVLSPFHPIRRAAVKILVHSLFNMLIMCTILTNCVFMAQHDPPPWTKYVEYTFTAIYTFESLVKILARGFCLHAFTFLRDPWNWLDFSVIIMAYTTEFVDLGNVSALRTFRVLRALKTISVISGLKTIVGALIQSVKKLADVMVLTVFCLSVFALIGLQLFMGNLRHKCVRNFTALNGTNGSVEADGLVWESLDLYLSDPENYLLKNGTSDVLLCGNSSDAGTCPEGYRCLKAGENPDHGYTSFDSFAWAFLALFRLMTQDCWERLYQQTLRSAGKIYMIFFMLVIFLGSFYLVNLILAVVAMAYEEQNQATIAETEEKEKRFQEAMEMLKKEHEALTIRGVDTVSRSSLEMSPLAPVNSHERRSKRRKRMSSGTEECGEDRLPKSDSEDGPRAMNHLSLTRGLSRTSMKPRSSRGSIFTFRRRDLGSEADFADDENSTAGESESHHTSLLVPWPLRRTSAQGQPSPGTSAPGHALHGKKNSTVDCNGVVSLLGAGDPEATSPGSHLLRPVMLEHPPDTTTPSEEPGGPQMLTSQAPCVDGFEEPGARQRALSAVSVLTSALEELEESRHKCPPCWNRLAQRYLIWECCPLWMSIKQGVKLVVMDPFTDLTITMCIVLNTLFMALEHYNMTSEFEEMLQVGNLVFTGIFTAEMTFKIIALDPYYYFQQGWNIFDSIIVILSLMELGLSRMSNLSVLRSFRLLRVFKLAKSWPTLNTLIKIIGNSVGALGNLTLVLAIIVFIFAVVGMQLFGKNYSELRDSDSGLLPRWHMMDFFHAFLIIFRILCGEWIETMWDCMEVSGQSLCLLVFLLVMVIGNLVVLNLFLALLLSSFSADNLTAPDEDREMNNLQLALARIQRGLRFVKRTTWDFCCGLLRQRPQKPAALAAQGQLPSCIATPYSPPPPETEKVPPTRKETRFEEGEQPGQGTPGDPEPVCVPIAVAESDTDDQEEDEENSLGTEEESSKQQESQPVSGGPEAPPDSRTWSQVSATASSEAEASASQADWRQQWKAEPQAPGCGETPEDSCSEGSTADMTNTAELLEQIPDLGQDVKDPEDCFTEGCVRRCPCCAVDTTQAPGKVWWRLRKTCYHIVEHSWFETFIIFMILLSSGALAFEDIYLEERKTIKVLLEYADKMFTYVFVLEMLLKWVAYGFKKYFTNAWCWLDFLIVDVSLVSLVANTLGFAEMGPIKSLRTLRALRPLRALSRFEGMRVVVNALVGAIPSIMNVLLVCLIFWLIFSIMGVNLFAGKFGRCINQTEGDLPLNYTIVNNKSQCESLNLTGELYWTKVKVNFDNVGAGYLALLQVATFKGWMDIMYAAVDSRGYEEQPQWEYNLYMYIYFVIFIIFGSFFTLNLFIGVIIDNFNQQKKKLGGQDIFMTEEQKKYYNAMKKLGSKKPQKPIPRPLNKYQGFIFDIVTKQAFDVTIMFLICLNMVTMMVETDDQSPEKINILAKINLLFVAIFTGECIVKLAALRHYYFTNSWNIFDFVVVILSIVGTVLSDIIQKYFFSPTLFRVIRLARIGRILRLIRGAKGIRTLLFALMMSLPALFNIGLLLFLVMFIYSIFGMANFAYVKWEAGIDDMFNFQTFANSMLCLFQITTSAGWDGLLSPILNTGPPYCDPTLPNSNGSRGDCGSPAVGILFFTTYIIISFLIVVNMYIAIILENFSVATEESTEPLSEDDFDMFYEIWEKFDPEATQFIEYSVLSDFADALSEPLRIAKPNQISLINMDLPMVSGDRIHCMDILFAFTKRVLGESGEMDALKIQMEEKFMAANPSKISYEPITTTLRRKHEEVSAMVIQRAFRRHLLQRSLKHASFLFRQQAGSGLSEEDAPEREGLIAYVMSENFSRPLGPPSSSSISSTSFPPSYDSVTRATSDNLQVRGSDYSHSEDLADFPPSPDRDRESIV
In short: as §1

T1 sequence (Q15858 whole entry): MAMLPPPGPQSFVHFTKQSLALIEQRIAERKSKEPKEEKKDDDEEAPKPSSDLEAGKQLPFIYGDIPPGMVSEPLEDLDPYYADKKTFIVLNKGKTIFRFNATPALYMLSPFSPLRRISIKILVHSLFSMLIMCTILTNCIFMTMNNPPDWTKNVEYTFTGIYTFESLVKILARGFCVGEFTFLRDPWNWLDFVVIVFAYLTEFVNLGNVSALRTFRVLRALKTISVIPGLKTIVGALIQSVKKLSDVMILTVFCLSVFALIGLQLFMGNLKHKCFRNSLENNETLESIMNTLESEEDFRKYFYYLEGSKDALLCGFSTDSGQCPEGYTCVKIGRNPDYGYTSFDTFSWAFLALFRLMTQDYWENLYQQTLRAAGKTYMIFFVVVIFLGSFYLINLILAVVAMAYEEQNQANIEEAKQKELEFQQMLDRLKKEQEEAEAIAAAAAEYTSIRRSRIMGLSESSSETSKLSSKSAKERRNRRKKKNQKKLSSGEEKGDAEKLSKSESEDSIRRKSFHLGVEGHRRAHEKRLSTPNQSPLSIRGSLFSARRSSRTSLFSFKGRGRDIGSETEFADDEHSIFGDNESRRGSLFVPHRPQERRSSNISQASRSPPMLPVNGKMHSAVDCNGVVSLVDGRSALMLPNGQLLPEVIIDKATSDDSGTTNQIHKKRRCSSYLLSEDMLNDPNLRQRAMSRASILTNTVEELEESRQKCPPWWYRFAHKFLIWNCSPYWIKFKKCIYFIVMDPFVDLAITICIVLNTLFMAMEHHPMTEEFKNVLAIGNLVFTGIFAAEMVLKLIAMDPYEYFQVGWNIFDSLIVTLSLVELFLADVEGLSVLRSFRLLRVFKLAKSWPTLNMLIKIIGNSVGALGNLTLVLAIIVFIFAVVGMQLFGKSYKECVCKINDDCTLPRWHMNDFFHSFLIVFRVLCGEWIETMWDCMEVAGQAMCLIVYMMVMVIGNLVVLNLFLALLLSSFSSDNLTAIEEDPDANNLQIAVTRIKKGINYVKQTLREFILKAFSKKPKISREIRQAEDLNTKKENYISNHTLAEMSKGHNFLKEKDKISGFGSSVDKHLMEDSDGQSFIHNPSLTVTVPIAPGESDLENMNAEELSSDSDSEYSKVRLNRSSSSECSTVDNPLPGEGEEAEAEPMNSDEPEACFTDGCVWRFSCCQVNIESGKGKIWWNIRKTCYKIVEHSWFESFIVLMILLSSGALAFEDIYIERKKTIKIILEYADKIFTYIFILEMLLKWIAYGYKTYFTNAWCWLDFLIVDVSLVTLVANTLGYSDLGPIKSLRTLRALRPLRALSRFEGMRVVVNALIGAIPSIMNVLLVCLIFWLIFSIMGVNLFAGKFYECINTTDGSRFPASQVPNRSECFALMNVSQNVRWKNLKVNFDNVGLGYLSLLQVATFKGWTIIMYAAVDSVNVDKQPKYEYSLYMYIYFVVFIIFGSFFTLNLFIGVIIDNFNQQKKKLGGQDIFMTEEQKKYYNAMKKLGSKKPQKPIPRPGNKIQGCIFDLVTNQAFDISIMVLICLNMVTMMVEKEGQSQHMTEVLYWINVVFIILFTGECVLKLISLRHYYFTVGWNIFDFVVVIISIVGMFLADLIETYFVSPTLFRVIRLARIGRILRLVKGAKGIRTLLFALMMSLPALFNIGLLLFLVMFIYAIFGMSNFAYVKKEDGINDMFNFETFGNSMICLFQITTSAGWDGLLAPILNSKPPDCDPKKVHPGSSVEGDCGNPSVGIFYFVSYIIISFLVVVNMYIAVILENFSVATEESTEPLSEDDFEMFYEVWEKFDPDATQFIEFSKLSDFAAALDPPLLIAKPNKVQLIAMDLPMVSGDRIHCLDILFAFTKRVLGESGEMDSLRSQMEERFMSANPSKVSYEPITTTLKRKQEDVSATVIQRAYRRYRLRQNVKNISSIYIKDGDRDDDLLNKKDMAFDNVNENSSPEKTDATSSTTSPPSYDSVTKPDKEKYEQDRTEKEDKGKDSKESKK

| SMILES | IC50 [1] [nM] | ratio of Nav 1.5:Nav 1.7 potency, determined by PatchXpress measurement [2] |
| --- | --- | --- |
| CCc1cc2c(cc1S(=O)(=O)Nc1ncns1)oc(=O)n2[C@H](C)c1ccccc1 [Compound 38-2, 5-ethyl-2-oxo-3-[(1R)-1-phenylethyl]-N-1,2,4-thiadiazol-5-yl-2,3-dihydro-1,3-benzoxazole-6-sulfonamide] | 94 | 17 |
| Cc1cc2c(cc1S(=O)(=O)Nc1ncns1)oc(=O)n2[C@H](C)c1ccccc1 [Compound 38-3] | 43 | 37 |
| Nc1ccc2c(c1)C(n1c(=O)oc3cc(S(=O)(=O)Nc4ncns4)c(F)cc31)CCC2 (stereo not drawn) [Compound 39-3] | 41 | 1196 |
| O=c1oc2cc(S(=O)(=O)Nc3ncns3)c(F)cc2n1C1CC2(COC2)Oc2ccccc21 (stereo not drawn) [Compound 39-4, 3-(3,4-dihydrospiro[chromene-2,3′-oxetan]-4-yl)-5-fluoro-2-oxo-N-1,2,4-thiadiazol-5-yl-2,3-dihydro-1,3-benzoxazole-6-sulfonamide] | 312 | 58 |
| Cc1cccc2c1CCCC2n1c(=O)oc2cc(S(=O)(=O)Nc3ncns3)c(F)cc21 (stereo not drawn) [Compound 39-5, 5-fluoro-3-(5-methyl-1,2,3,4-tetrahydronaphthalen-1-yl)-2-oxo-N-1,2,4-thiadiazol-5-yl-2,3-dihydro-1,3-benzoxazole-6-sulfonamide] | 261 | 14 |
| O=c1oc2cc(S(=O)(=O)Nc3ncns3)c(F)cc2n1C1CCOc2ccccc21 (stereo not drawn) [Compound 39-6, 3-(3,4-dihydro-2H-chromen-4-yl)-5-fluoro-2-oxo-N-1,2,4-thiadiazol-5-yl-2,3-dihydro-1,3-benzoxazole-6-sulfonamide] | 221 | 110 |
| CC1(C)CC(n2c(=O)oc3cc(S(=O)(=O)Nc4ncns4)c(F)cc32)c2ccccc2O1 (stereo not drawn) [Compound 39-7, 3-(2,2-dimethyl-3,4-dihydro-2H-chromen-4-yl)-5-fluoro-2-oxo-N-1,2,4-thiadiazol-5-yl-2,3-dihydro-1,3-benzoxazole-6-sulfonamide] | 218 | 137 |
| O=c1oc2cc(S(=O)(=O)Nc3ncns3)c(F)cc2n1C1COCc2ccccc21 (stereo not drawn) [Compound 39-8, 3-(3,4-dihydro-1H-isochromen-4-yl)-5-fluoro-2-oxo-N-1,2,4-thiadiazol-5-yl-2,3-dihydro-1,3-benzoxazole-6-sulfonamide] | 204 | 29 |
| O=C(c1ccccc1)N1CCC2(CC1)CC(n1c(=O)oc3cc(S(=O)(=O)Nc4ncns4)c(F)cc31)c1cc(F)ccc1O2 (stereo not drawn) [Compound 39-9, 5-fluoro-3-[6-fluoro-1′-(phenylcarbonyl)-3,4-dihydrospiro[chromene-2,4′-piperidin]-4-yl]-2-oxo-N-1,2,4-thiadiazol-5-yl-2,3-dihydro-1,3-benzoxazole-6-sulfonamide] | 168 | 54 |
| O=c1oc2cc(S(=O)(=O)Nc3ncns3)c(F)cc2n1C1CCCc2ccccc21 (stereo not drawn) [Compound 39-10, 5-fluoro-2-oxo-3-(1,2,3,4-tetrahydronaphthalen-1-yl)-N-1,2,4-thiadiazol-5-yl-2,3-dihydro-1,3-benzoxazole-6-sulfonamide] | 168 | 199 |
| O=c1oc2cc(S(=O)(=O)Nc3ncns3)c(F)cc2n1C1CC2(CCN(Cc3ccccc3)CC2)Oc2ccccc21 (stereo not drawn) [Compound 39-11, 3-(1′-benzyl-3,4-dihydrospiro[chromene-2,4′-piperidin]-4-yl)-5-fluoro-2-oxo-N-1,2,4-thiadiazol-5-yl-2,3-dihydro-1,3-benzoxazole-6-sulfonamide] | 166 | 114 |
| CC1(C)CCC(n2c(=O)oc3cc(S(=O)(=O)Nc4ncns4)c(F)cc32)c2ccccc21 (stereo not drawn) [Compound 39-12, 3-(4,4-dimethyl-1,2,3,4-tetrahydronaphthalen-1-yl)-5-fluoro-2-oxo-N-1,2,4-thiadiazol-5-yl-2,3-dihydro-1,3-benzoxazole-6-sulfonamide] | 159 | 38 |
| O=c1oc2cc(S(=O)(=O)Nc3ncns3)c(F)cc2n1C1CCOc2ccc(F)cc21 (stereo not drawn) [Compound 39-13, 5-fluoro-3-(6-fluoro-3,4-dihydro-2H-chromen-4-yl)-2-oxo-N-1,2,4-thiadiazol-5-yl-2,3-dihydro-1,3-benzoxazole-6-sulfonamide] | 112 | 295 |
| O=c1oc2cc(S(=O)(=O)Nc3ncns3)c(F)cc2n1[C@@H]1CC2(CCC2)Oc2ccccc21 [Compound 39-14, 3-[(4R)-3,4-dihydrospiro[chromene-2,1′-cyclobutan]-4-yl]-5-fluoro-2-oxo-N-1,2,4-thiadiazol-5-yl-2,3-dihydro-1,3-benzoxazole-6-sulfonamide] | 60 | 99 |
| O=c1oc2cc(S(=O)(=O)Nc3ncns3)c(F)cc2n1[C@@H]1C[C@@H](c2ccccc2)Oc2ccccc21 [Compound 39-15, 5-fluoro-2-oxo-3-[(2S,4R)-2-phenyl-3,4-dihydro-2H-chromen-4-yl]-N-1,2,4-thiadiazol-5-yl-2,3-dihydro-1,3-benzoxazole-6-sulfonamide] | 54 | 36 |
| O=c1oc2cc(S(=O)(=O)Nc3ncns3)c(F)cc2n1[C@H]1CC2(CCC2)Oc2ccccc21 [Compound 39-16, 3-[(4S)-3,4-dihydrospiro[chromene-2,1′-cyclobutan]-4-yl]-5-fluoro-2-oxo-N-1,2,4-thiadiazol-5-yl-2,3-dihydro-1,3-benzoxazole-6-sulfonamide] | 53 | 149 |
| O=c1oc2cc(S(=O)(=O)Nc3ncns3)c(F)cc2n1[C@H]1CC2(CCC2)Oc2ccc(F)cc21 [Compound 39-17, 5-fluoro-3-[(4S)-6-fluoro-3,4-dihydrospiro[chromene-2,1′-cyclobutan]-4-yl]-2-oxo-N-1,2,4-thiadiazol-5-yl-2,3-dihydro-1,3-benzoxazole-6-sulfonamide] | 53 | 115 |
| Cc1csc(NS(=O)(=O)c2ccc3c(c2)oc(=O)n3C(C)c2ccccc2)n1 (stereo not drawn) [Compound 40-5, N-(4-methyl-1,3-thiazol-2-yl)-2-oxo-3-(1-phenylethyl)-2,3-dihydro-1,3-benzoxazole-6-sulfonamide] | 1190 | 25 |
| C[C@H](c1ccccc1)n1c(=O)oc2cc(S(=O)(=O)Nc3nccs3)ccc21 [Compound 41-4, (R)-2-oxo-3-(1-phenylethyl)-N-(thiazol-2-yl)-2,3-dihydrobenzo[d]oxazole-6-sulfonamide] | 161 | 187 |
| COC(=O)[C@H](c1ccccc1)n1c(=O)oc2cc(S(=O)(=O)Nc3nccs3)ccc21 [Compound 41-6, methyl (2S)-[2-oxo-6-(1,3-thiazol-2-ylsulfamoyl)-1,3-benzoxazol-3(2H)-yl](phenyl)ethanoate] | 553 | 54 |
| C[C@H](c1cccc2c1CNCC2)n1c(=O)oc2cc(S(=O)(=O)Nc3nccs3)ccc21 [Compound 42-1, (R)-2-oxo-3-(1-(1,2,3,4-tetrahydroisoquinolin-8-yl)ethyl)-N-(thiazol-2-yl)-2,3-dihydrobenzo[d]oxazole-6-sulfonamide] | 30 | 1017 |
| C[C@H](c1ccccc1)n1c(=O)oc2cc(S(=O)(=O)Nc3nccs3)c(F)cc21 [Compound 43-2, (R)-5-fluoro-2-oxo-3-(1-phenylethyl)-N-(thiazol-2-yl)-2,3-dihydrobenzo[d]oxazole-6-sulfonamide] | 68 | 88 |
| O=c1oc2cc(S(=O)(=O)Nc3nccs3)c(F)cc2n1C1CCCc2ccncc21 (stereo not drawn) [Compound 43-3, 5-fluoro-2-oxo-3-(5,6,7,8-tetrahydroisoquinolin-8-yl)-N-1,3-thiazol-2-yl-2,3-dihydro-1,3-benzoxazole-6-sulfonamide] | 550 | 91 |
| O=c1oc2cc(S(=O)(=O)Nc3nccs3)c(F)cc2n1C1CCCc2cccnc21 (stereo not drawn) [Compound 43-4, 5-fluoro-2-oxo-3-(5,6,7,8-tetrahydroquinolin-8-yl)-N-1,3-thiazol-2-yl-2,3-dihydro-1,3-benzoxazole-6-sulfonamide] | 424 | 71 |
| O=c1oc2cc(S(=O)(=O)Nc3nccs3)c(F)cc2n1C1CCCc2ccc(Cl)nc21 (stereo not drawn) [Compound 43-5, 3-(2-chloro-5,6,7,8-tetrahydroquinolin-8-yl)-5-fluoro-2-oxo-N-1,3-thiazol-2-yl-2,3-dihydro-1,3-benzoxazole-6-sulfonamide] | 416 | 202 |
| O=c1oc2cc(S(=O)(=O)Nc3nccs3)c(F)cc2n1Cc1cccc(Br)c1 [Compound 43-6, 3-(3-bromobenzyl)-5-fluoro-2-oxo-N-1,3-thiazol-2-yl-2,3-dihydro-1,3-benzoxazole-6-sulfonamide] | 162 | 80 |
| Cc1ccc2c(c1)C(n1c(=O)oc3cc(S(=O)(=O)Nc4nccs4)c(F)cc31)CCC2 (stereo not drawn) [Compound 43-7, 5-fluoro-3-(7-methyl-1,2,3,4-tetrahydronaphthalen-1-yl)-2-oxo-N-1,3-thiazol-2-yl-2,3-dihydro-1,3-benzoxazole-6-sulfonamide] | 111 | 137 |
